Measured values taken from patent US12606795B2 (Thankcome Biological Science and Technology (SuZhou) Co., …, priority 2023, dated 2026).
Marks after values point to notes of the source that are not given here.

What was measured:
[1] = test system: gouty arthritis mouse model; assay: Gouty arthritis mouse model (sodium urate); format: in vivo, BALB/c mice; settings: for SOD in mouse ankle joint tissue: model group 1.07, normal 6.07; for MPO in mouse ankle joint tissue: model group 2.49, normal 0.38; for GSH in mouse ankle joint tissue: model group 18.06, normal 47.05; for IL-1β in serum of mice: model group 24.97, normal 12.66; for MDA in mouse ankle joint tissue: model group 26.69, normal 5.74; for IL-10 in serum of mice: model group 36.03, normal 27.20; for IL-6 in serum of mice: model group 90.05, normal 52.97; for TNF-α in serum of mice: model group 249.41, normal 117.58
Method: Mice were randomly divided into 5 groups: a normal group, a model group, a glucosamine sulfate (positive control) group, an Akk low-concentration experimental (Akk-L) group, and an Akk high-concentration experimental (Akk-H) group, with 10 mice in each group. The mice in the normal group and the mice in the model group were intragastrically administered with distilled water at a dosage of 0.1 mL/10 g. bw per day. The mice in the glucosamine sulfate group were intragastrically administered with glucosamine sulfate at a dosage of 195 mg/kg. bw. The mice in the Akk-L group and the mice in the Akk-H group were intragastrically administered with Akk experimental bacteria at a dosage of 10^8 CFU/kg. bw and 10^9 CFU/kg. bw, respectively, for 7 consecutive days. Then, all experimental mice were anesthetized with isoflurane, and then 50 μL of PBS solution was injected into the tibiotarsal joint (ankle joint) of the right paw of the mouse in the normal group. 50 mg of sodium urate was added to 1 mL of PBS buffer to prepare a suspension. 50 μL of suspension was injected into the tibiotarsal joints (ankle joint) of the right paws of the rest of the mice except the mice in the […] to induce gouty arthritis. After the mice woke up, they were intragastrically administrated with a corresponding sample for 7 d still at the dosage of the sample intragastrically administrated in the previous 7 days.
0.1 g of mouse ankle joint tissue was weighed and added into […] containing 0.9 mL of saline and mixing was performed. Subsequently, mixed tissue samples were centrifuged at a speed of 4000 rpm for 10 min to obtain liquid supernatant. Next, related indicators in the liquid supernatant of a tissue homogenate was determined using assay kits for MPO, SOD, GSH, and MDA.
A taken-out whole blood sample of the mouse was centrifuged at 4° C. at 4000 rpm for 10 min to obtain supernatant serum. Serum-related inflammatory indicators were determined using the ELISA kit for IL-6, IL-10, IL-1β, and TNF-α.

[2] = test system: AOM/DSS-induced colorectal carcinoma mice; assay: AOM/DSS-induced colorectal carcinoma mice; format: in vivo, C57BL/6 mice; settings: for colorectum weight/length (ratio): model group 4.34±0.35, normal 2.81±0.34
Method: 6-week-old SPF male C57BL/6 mice, purchased from the Chongqing Lepitt Biotechnology Co., Ltd. The mice were raised in a standardized laboratory with room temperature of 25° C.±2° C., relative humidity of 50%±5%, and 12 h of light/12 h of darkness. […] In experiments, mice were given free feeding and water. On the first day of experimental molding, the mice in the model group, the aspirin group, and the AKKP group were injected intraperitoneally with AOM at a dosage of 10 mg/kg, and were fed with 2.5% DSS aqueous solution at weeks 2, 5, and 8. The mice in the normal group and model group were intragastrically administrated with sterile saline; the mice in the aspirin group were intragastrically administrated with an aspirin solution at 67 mg/kg, and the mice in the AKKPL group and the AKKPH group were intragastrically administrated at dosages of 1×10^8 CFU/kg and 1×10^9 CFU/kg, respectively, for 10 consecutive weeks. In the experiments, diet, activity, vigor and hair conditions, and fecal properties of the mice in each group were observed. Each mouse was weighed per week and the body weights were recorded. After the experiments, blood was collected from eyeballs and the mice were sacrificed by removing their vertebrae. The mice were dissected to take out large intestine tissue, spleen tissue, liver tissue, and the kidney tissue for later testing.
After the mice were dissected, the large intestine tissue, the spleen tissue, the liver tissue, and the kidney tissue were taken out and weighed. An organ Index was calculated using a formula, while the colorectum length of the mouse was measured and the colorectal tumorigenesis number of the mouse was recorded. Organ index=organ weight (mg)/mouse body weight (g).
After being fixed in a tissue fixative for 24 h, the rectum of the mouse was transferred into 95% ethanol for dehydration, and then the dehydrated rectum was placed in xylene to replace alcohol in the tissue to make the rectum tissue transparent. Then, the treated rectum was embedded with paraffin. The embedded rectum was sectioned by a microtome, and then a tissue section was stained with H&E and fixed, obtaining a pathologic tissue section, with a thickness of 2 to 3 μm, of the rectum of the mouse, and the pathologic tissue section was observed under the upright microscope.
Whole blood was collected from the eyeballs, and centrifuged at 4000 r/min and 4° C. for 10 min to separate supernatant serum. According to the instruction of the ELISA kit, the levels of IL-1β, IL-6, IFN-γ, iNOS and NF-κB in the serum of the mouse were determined.
About 50 mg colon tissue was taken and cleaned with saline, and the cleaned colon tissue was placed in a homogenization tube containing 6 zirconia beads, and 500 μL TRIzol™ reagent was added to extract RNA in the tissue. The purity and concentration of RNA were determined using the micro-spectrophotometer. […] Then, after cDNA was generated by reverse transcription, a reaction system containing 1 μL cDNA was prepared. Other reagents include 10 μL qPCR SYBR Green Master Mix, […] sterile distilled water, 1 μL forward primer and 1 μL reverse primer. qRT-PCR amplification reaction conditions: 95° C., 10 s, 60° C., 30 s, 40 cycles; 95° C., 15 s, 60° C., 60 s, 95° C., 15 s. Taking Eef2 as an internal reference gene, the mRNA relative expression of each target gene was calculated according to formula 2^−ΔΔCt.

[3] = test system: APP/PS1 double transgenic mice; assay: Alzheimer's disease in APP/PS1 double transgenic mice; format: in vivo; settings: 1*10^9 CFU/mouse/d 30 d
[4] = Akk-H 10^9 CFU/kg. bw intragastric
[5] = Akk-L 10^8 CFU/kg. bw intragastric
[6] = qRT-PCR, aspirin 67 mg/kg or AKKPH 1×10^9 CFU/kg, vs model group, P<0.05
[7] = qRT-PCR, vs model group, P<0.05

Akkermansia muciniphila [AKK PROBIO]
SOD in mouse ankle joint tissue [1, 4]: 4.70 ± 0.16 U/mg | MPO in mouse ankle joint tissue [1, 4]: 0.77 ± 0.06 U/g | GSH in mouse ankle joint tissue [1, 4]: 39.28 ± 2.39 mg/g | IL-1β in serum of mice [1, 4]: 18.48 ± 1.34 ng/mL | MDA in mouse ankle joint tissue [1, 4]: 12.97 ± 1.20 nmol/mg | IL-10 in serum of mice [1, 4]: 28.72 ± 1.35 ng/mL | IL-6 in serum of mice [1, 4]: 58.83 ± 2.60 ng/mL | TNF-α in serum of mice [1, 4]: 148.87 ± 9.60 ng/mL | SOD in mouse ankle joint tissue [1, 5]: 2.31 ± 0.43 U/mg | MPO in mouse ankle joint tissue [1, 5]: 1.97 ± 0.19 U/g | GSH in mouse ankle joint tissue [1, 5]: 29.89 ± 2.63 mg/g | IL-1β in serum of mice [1, 5]: 21.83 ± 1.72 ng/mL | MDA in mouse ankle joint tissue [1, 5]: 20.93 ± 1.30 nmol/mg | IL-10 in serum of mice [1, 5]: 34.17 ± 2.18 ng/mL | IL-6 in serum of mice [1, 5]: 71.59 ± 5.46 ng/mL | TNF-α in serum of mice [1, 5]: 211.76 ± 10.58 ng/mL | colorectum weight/length (ratio) ([2]; AKKPH 1×10^9 CFU/kg intragastric 10 weeks): 2.97±0.18 | colorectum weight/length (ratio) ([2]; AKKPL 1×10^8 CFU/kg intragastric 10 weeks): 3.18±0.31 | body weight loss ([2]; AOM/DSS mice, intragastric 10 weeks, aspirin 67 mg/kg, AKKP 1×10^8 and 1×10^9 CFU/kg): alleviate the body weight loss in the mice to a certain extent | content of IL-6 in serum ([2]; ELISA, vs model group): reduced | content of IFN-γ in serum ([2]; ELISA, vs model group, P<0.05): reduced | content of IL-1β in serum ([2]; ELISA, vs model group, P<0.05): lower than that in the model group | content of NF-κB in serum ([2]; ELISA, vs model group, P<0.05): reduced | content of iNOS in serum ([2]; ELISA, vs model group, P<0.05): reduced | pathological morphology of rectum tissue (H&E) ([2]; aspirin, AKKPL and AKKPH groups): no obvious erosion found in the rectal mucosa | kidney index / renal tissue ([2]; between the five groups, P>0.05): no significant difference | mRNA relative expression of IκBβ in colon tissue [2, 6]: significantly reduced | mRNA relative expression of p50 in colon tissue [2, 6]: significantly reduced | mRNA relative expression of Bid in colon tissue [2, 7]: significantly increased | mRNA relative expression of Bim in colon tissue [2, 7]: significantly increased | mRNA relative expression of caspase-9 in colon tissue [2, 7]: significantly increased | mRNA relative expression of p52 in colon tissue [2, 7]: significantly reduced | mRNA relative expression of p65 in colon tissue [2, 7]: significantly reduced | colorectal tumorigenesis number ([2]; vs model group, P<0.05): significantly smaller | liver weight (liver index) ([2]; vs model group, P<0.05): reduced | spleen weight (spleen index) ([2]; vs model group, P<0.05): reduced | colorectum length ([2]; vs model group, P<0.05, aspirin 67 mg/kg, AKKP 1×10^8 and 1×10^9 CFU/kg, 10 weeks): relatively long | Serum IL-4 ([3]; APP group 35.00, WT 106.52): 70.42 ± 3.40^c | Serum CCL2 ([3]; APP group 80.13, WT 59.07): 67.74 ± 1.51^b | Serum CXCL1 ([3]; APP group 168.91, WT 14.87): 56.40 ± 2.88^b | Serum IL-10 ([3]; APP group 565.36, WT 2779.61): 2133.04 ± 18947^b
